US6989377B2, “Treating vitamin D responsive diseases” (priority 1999, dated 2006)
Marks after values point to notes of the source that are not given here.

Assays:
Type in all cases: in vivo, mouse
[1] = tested on: DS-induced colitis in C3H/HeJ male mice; assay: Calcitriol prevention of DS-induced colitis; conditions: 50 ng/day in diet from day −7; 1% DS days 0 to 5; terminated day 27
[2] = tested on: DSS-induced colitis in 129X1/SvJ male mice; assay: Treatment at the first signs of DSS-induced colitis in 129X1/SvJ mice; conditions: 50 ng/d from day 4 of 1% DSS
From the text: The 129×1/SvJ strain is genetically similar to the 129/Ola strain and to the 129/SvPas strain, which is less susceptible to DSS-induced colitis than C3H/HeJ.

[3] = tested on: DS-induced colitis in C3H/HeJ male mice; assay: Calcitriol prevention of DS-induced colitis
Method: Fecal hemoglobin was analyzed in the mice to determine bleeding from a breached intestinal barrier. […] Co., Needham Heights, Mass.), the supernatants were decanted into fresh tubes and stored frozen at -20° C. Hemoglobin in the supernatants was analyzed by a method adapted from Saitoh et al., Digestion, 56:67-75, 1995, and Liem et al., Anal. Biochem., 98:388-393, 1979, with rat hemoglobin as standard (Sigma-Aldrich). The supernatants were diluted 1:25 in TBS. […] The reaction was stopped with 100 μL of 2 M phosphoric acid, and the absorbance at 450 nm was measured with an MRX Revelation Microplate Reader (DYNEX Technologies). […] The mice were euthanized with an i.p. injection of pentobarbital. […] The fixed tissue was embedded in paraffin, sectioned at 6 μm, stained with hematoxylin and eosin, and examined by light microscopy. Scoring was conducted by a veterinary pathologist in blinded fashion. […] Clin. Invest., 98:1010-1020, 1996. The scores were summed to provide a total colitis score for each mouse. […] In particular, age-matched C3H/HeJ male mice were fed a synthetic diet (see Example 6) with or without calcitriol or prednisolone for one week. […] The mice were weighed every 3-4 days thereafter. […] Serum and colon tissue were collected on day 28. Most assays were performed as described in Example 6, and the terminal serum calcium assay was performed as described below. […] The serum was decanted and stored frozen at -20° C. The samples, standards, and buffer blanks (2 μL each) were aliquoted into duplicate wells of a 96-well plate. Calcium reagent working solution (0.25 mL), prepared according to the manufacturer's directions (Sigma Diagnostics, St. Louis, Mo.), was added to each well, and the absorbance at 570 nm was measured.

[4] = tested on: male C3H/HeJ mice; assay: DS-induced colitis model in mice (weight, mortality, fecal hemoglobin, colon histopathology); conditions: for Colon Histopathology (sum): total colitis score 0 to 16
From the text: This Example describes the generation of a mouse model for dextran sulfate (DS) induced colitis. This DS-induced colitis model was adapted from Okayasu et al. (1990) for use with a synthetic diet. In this Example, male C3H/HeJ mice were used, as these mice are highly susceptible to DS-induced colitis. Initially, mice were given 3.5% DS w/v in acidified water for 5 days, followed by acidified water without DS, and continuously fed a synthetic diet (synthetic diet described in Smith and Hayes, PNAS, USA, 84:5878-5882, 1987). […] These mice shunned the water containing DS, and met their hydration needs by consuming the synthetic diet (which is approximately 60% water by weight). A second group of mice were given 3.5% DS w/v in acidified water for 5 days, followed by acidified water without DS, and continuously fed laboratory chow (Purina mouse chow #5008) as described in Mahler et al., Gastrointest, Liver Physiol., 37:G544-G551 (1996). These mice, consuming an average of 0.57 g DS/mouse, lost weight (controls 26.1±0.7 g; DS group 22.8±0.3 g), and had hemoglobin (Hg) in the stool (controls 0±0 mg Hg/g stool; DS group 11.4 mg Hg/g stool).
To adapt the DS-induced model for use with the synthetic diet (see Smith and Hayes, 1987), a third group of mice were given graded amounts of DS in acidified water and a synthetic diet for 5 days, followed by acidified water and the synthetic diet without DS. These mice were weighed twice weekly and subjected to various other assays, including: fecal hemoglobin analysis, and histopathologic analysis. The results are presented below in Tables 2 and 3.
Fecal hemoglobin was analyzed in the mice to determine bleeding from a breached intestinal barrier. Fresh stool samples were collected from individual mice, dried overnight, weighed, and suspended in 0.5 mL of TRIS-buffered saline (TBS; 25 mM TRIS, 0.15 M NaCl, pH 7.6). The stool samples were centrifuged (10,000×g for 10 min) at room temperature in a Micromax centrifuge (International Equip. Co., Needham Heights, Mass.), the supernatants were decanted into fresh tubes and stored frozen at −20° C. Hemoglobin in the supernatants was analyzed by a method adapted from Saitoh et al., Digestion, 56:67-75, 1995, and Liem et al., Anal. Biochem., 98:388-393, 1979, with rat hemoglobin as standard (Sigma-Aldrich). The supernatants were diluted 1:25 in TBS. The assay was done in round-bottom, polystyrene, 96 well microtiterplates (#3555, DYNEX Technologies, Chantily, Va.). The samples, standards, and buffer blanks (20 μL each) were incubated in duplicate for 10 min with 100 μL of a substrate solution made with 9 volumes 3,3′5,5′-tetramethylbenzidine dihydrochloride peroxide solution (Turbo TMB-ELISA, Pierce Chemical Co., Rockford, Ill.) and 1 volume of hydrogen peroxide solution (Stable Peroxide Substrate Buffer, Pierce Chemical Co.). The reaction was stopped with 100 μL of 2 M phosphoric acid, and the absorbance at 450 nm was measured with an MRX Revelation Microplate Reader (DYNEX Technologies). The fecal hemoglobin assay working range was 1 to 100 μg/mL sample.
The mice were euthanized with an i.p. injection of pentobarbital. The cecal and rectal GI tract segments were collected, cut longitudinally, flushed with 10% neutral-buffered formalin, arranged in a spiral pattern in a cassette, and fixed in formalin. The fixed tissue was embedded in paraffin, sectioned at 6 μm, stained with hematoxylin and eosin, and examined by light microscopy. Scoring was conducted by a veterinary pathologist in blinded fashion. Each colon segment (proximal, medial, and distal colon, and rectum) was given a score from 0 to 4, based on the criteria described by Berg et al., J. Clin. Invest., 98:1010-1020, 1996. The scores were summed to provide a total colitis score for each mouse. The total colitis score could range from 0 (no pathology in any segment) to 16 (grade 4 lesions in all colon segments).

[5] = 1% DS in drinking water and synthetic diet, days 0 to 5
[6] = 1.5% DS in drinking water and synthetic diet, days 0 to 5
[7] = 2.0% DS in drinking water and synthetic diet, days 0 to 5
[8] = 3.0% DS in drinking water, laboratory chow

## C[C@]12C=CC(=O)C=C1CC[C@@H]1[C@@H]2[C@@H](O)C[C@@]2(C)[C@H]1CC[C@]2(O)C(=O)CO [Prednisolone, prednisolone]
[1]
  Terminal weight: 29.4 ± 1.4 g
[2]
  Colon Histopathology, Distal colon: 2.0 ± 0.3
  Colon Histopathology, Middle colon: 0.2 ± 0.3
  Colon Histopathology, Rectum + anus: 0.8 ± 1.1
  Colon histopathology, Proximal colon: 0.7 ± 0.4
  Colon histopathology, Sum: 3.7 ± 1.3
[2]; 1 cycle, terminated 21 days later
  Peak fecal hemoglobin: 0.4 ± 0.6 mg/g
[2]; terminated 21 days later
  Terminal Serum Ca: 8.3 ± 1.3 mg/dL
  Terminal weight: 26.5 ± 02.0 g
[3]; 50 ng/day in diet from day −7, 1% DS days 0 to 5
  Peak Hg in Stool: 12.3 ± 10.0 mg/g
[3]; 50 ng/day in diet from day −7, 1% DS days 0 to 5, terminated day 27
  Terminal serum Ca++: 10.5 ± 1.2 mg/dL
[3]; 50 ng/day, 1% DS, score 0 to 4
  Colon Histopathology, Distal colon: 1.1 ± 0.4
  Colon histopathology, Medial colon: 0.3 ± 0.5
  Colon histopathology, Proximal colon: 1.0 ± 0
  Colon histopathology, Rectum: 2.9 ± 1.1
[3]; 50 ng/day, 1% DS, total score 0 to 16
  Colon histopathology, Sum: 5.3 ± 1.4

## dextran sulfate [DS]
[4]; 1% DS in acidified drinking water and synthetic diet, days 0 to 5
  Weight change (%, day 0-11): 2.1 ± 0.9%
[4]; [5]
  Mortality (%): 0%
  Peak Hg in Stool: 1.8 mg/g
[4]; 1% DS in drinking water and synthetic diet
  Colon Histopathology (sum): 6.3 ± 3.5
[4]; [6]
  Mortality (%): 66%
  Peak Hg in Stool: 16.7 mg/g
  Weight change (%, day 0-11): −12.4 ± 0.7%
[4]; 1.5% DS in drinking water and synthetic diet
  Colon Histopathology (sum): 6.5
[4]; [7]
  Mortality (%): 100%
  Peak Hg in Stool: 31.7 mg/g
[4]; 2.0% DS in drinking water and synthetic diet, weight change day 0 to 6, when mortality reached 100%
  Weight change (%, day 0-11): −17.5 ± 0.2^b %
[4]; [8]
  Mortality (%): 0%
  Peak Hg in Stool: 11.4 mg/g
  Weight change (%, day 0-11): −5.4%
  Colon Histopathology (sum): 9.5 ± 0.9
[4]; 3.5% DS w/v in acidified water for 5 days, laboratory chow
  Hemoglobin (Hg) in the stool: 11.4 mg Hg/g stool
[4]; 3.5% DS w/v in acidified water for 5 days, laboratory chow, controls 26.1±0.7 g
  Body weight: 22.8 ± 0.3 g
[4]; 3.5% DS w/v in acidified water for 5 days, synthetic diet (mice shunned the DS water)
  Signs of colitis (diarrhea, blood in the stool, weight loss): no signs of colitis
